Consider three compounds from patent publication US5783574A, “Imidazolylakyl derivatives of imidazo [5,1-c][1,4]benzoxazin-1-one process for their preparation” (Pharmacia & Upjohn S.p.A., priority 1994, dated 1998).

Experiment [1] has as its target T1, 5-HT3 binding sites in rat brain cortical membranes (Rattus norvegicus, UniProt P35563).
T1 construct: from tissue; host or cells: rat entorhinal cortex membranes
T1 sequence (P35563 24-483): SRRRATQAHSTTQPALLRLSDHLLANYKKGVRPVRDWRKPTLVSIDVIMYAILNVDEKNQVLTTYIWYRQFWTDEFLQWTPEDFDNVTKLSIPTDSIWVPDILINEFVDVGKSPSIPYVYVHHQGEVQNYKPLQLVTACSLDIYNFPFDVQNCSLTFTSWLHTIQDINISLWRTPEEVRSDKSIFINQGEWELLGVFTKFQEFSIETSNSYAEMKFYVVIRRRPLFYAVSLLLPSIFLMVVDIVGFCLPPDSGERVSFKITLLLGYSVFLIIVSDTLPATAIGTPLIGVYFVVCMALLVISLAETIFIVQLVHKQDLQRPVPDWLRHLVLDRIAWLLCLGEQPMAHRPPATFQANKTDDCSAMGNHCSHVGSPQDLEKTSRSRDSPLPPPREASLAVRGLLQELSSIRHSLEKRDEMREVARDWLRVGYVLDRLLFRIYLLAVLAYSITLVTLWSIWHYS
The experiment can be described thus: inhibition of 3H-BRL 43694 (Granisetron) binding in rat entorhinal cortex membranes. The settings on record: read-out: 5-HT3 binding affinity, 3H-BRL 43694 IC50. An excerpt: [^3 H]-BRL 43694 (Granisetron) is a specific ligand for 5-HT3 binding sites in rat brain cortical membranes: Biochem. Pharmac. 38, 1693-1695, 1989.
The following Table II summarizes the activity data obtained in this in-vitro test for two representative compounds of the invention in comparison with compound A, i.e. a close chemically related compound falling within U.S. Pat. No. 4,134,974.
5-HT3 binding affinity for rat entorhinal

The target in the next experiment is T2, 5HT3 receptor (Rattus norvegicus, UniProt P35563).
T2 construct: evoked by 5-HT in the anesthetised rat; from tissue; host or cells: whole anaesthetised rat (by own knowledge: cardiopulmonary vagal afferents)
T2 sequence (P35563 24-483): T1 sequence (P35563 24-483)
Briefly: inhibition of the von Bezold-Jarisch reflex (chemoreflex) evoked by 5-HT in the anesthetised rat. The settings on record: anesthetized rat, 5-HT 30 μg/kg i.v.; for % inhibition of the von Bezold-Jarisch reflex elicited by 5-HT: compound 100 μg/kg i.v., N=6, mean; for ED50: iv, limits printed on the line below. It is filed as in vivo. The protocol:
Pharmacol. 326, 36-44 (1984).
Inhibition of the von Bezold-Jarisch reflex
elicited by 5-HT (30 μg/kg i.v.) by FCE
compounds in the anesthetized rat. Values are
mean ± in S.E.M. from N animals

pIC50: −log10 of the molar value. Counter-ions that a name gives are not always drawn.

Usually pIC50 stands for −log10 of the IC50, conventionally taken in molar units. The term ED50 denotes the dose that gives a 50% effect, or the effect in half of the subjects.

As to `Cc1nccn1CCN1CC2COc3ccccc3N2C1=O` (stereo not shown) [Compound A, 2,3,3a,4tetrahydro-2-[2(2-methyl-imidazol-1-yl)ethyl1H-imidazo[5,1c][1,4]enzoxazin1-one hydrochloride, reference compound], the pIC50 in experiment [1] was 5.92.
Take `Cc1[nH]cnc1CN1CC2COc3ccccc3N2C1=O` (stereo not shown) [FCE 28158, 2,3,3a,4-tetrahydro-2-(5-methyl-1H-imidazol-4-yl)methyl-1H-imidazo[5,1-c][1,4]benzoxazin-1-one]: the pIC50 in experiment [1] is 7.12. On 5HT3 receptor, the “% inhibition of the von Bezold-Jarisch reflex elicited by 5-HT” value is recorded as 82% and the median effective dose (ED50) was determined as 0.0236 mg/kg.
As for `Cc1[nH]cnc1CN1CC2COc3ccc(Cl)cc3N2C1=O` (stereo not shown) [FCE 28609, 2,3,3a,4-tetrahydro-8-chloro-2-(5-methyl-1H-imidazol-4-yl)methyl-1H-imidazo[5,1-c][1,4]benzoxazin-1-one], in experiment [1], the pIC50 is 8.22. For the same compound, at 5HT3 receptor, the “% inhibition of the von Bezold-Jarisch reflex elicited by 5-HT” value is 97.5% and the median effective dose (ED50) turned out to be 0.00818 mg/kg.
